Reference: ChEMBL document CHEMBL1212761, “Biologic activities of the TolC-like protein of Neisseria meningitidis as assessed by functional complementation in Escherichia coli” (2010)
In brackets after ≈: the same amount, converted by molar mass.

Tests used:
Format in all cases: functional
[1] = test system: Neisseria meningitidis; experiment: Antimicrobial activity against Neisseria meningitidis M7mtrE::Spc by agar dilution method
[2] = test system: Neisseria meningitidis; experiment: Antimicrobial activity against Neisseria meningitidis M7tolC::Kan by agar dilution method
[3] = test system: Neisseria meningitidis; experiment: Antimicrobial activity against Neisseria meningitidis M7tolC::Kan mtr::Spc by agar dilution method
[4] = test system: Neisseria meningitidis; experiment: Antimicrobial activity against Neisseria meningitidis M7 by agar dilution method
[5] = test system: Escherichia coli; experiment: Antimicrobial activity against Escherichia coli RAM1129 by agar dilution method
[6] = test system: Escherichia coli; experiment: Antimicrobial activity against Escherichia cloi RAM1129 transfected with pNK1 containg Neisseria meningitidis tolC gene by agar dilution method
[7] = test system: Escherichia coli; experiment: Antimicrobial activity against Escherichia cloi RAM1129 transfected with pGCC4 containg IPTG-inducible lacZ promoter by agar dilution method
[8] = test system: Escherichia coli; experiment: Antimicrobial activity against Escherichia coli RAM4100 by agar dilution method
[9] = test system: Escherichia coli; experiment: Antimicrobial activity against Escherichia cloi RAM4100 transfected with pNK1 containg Neisseria meningitidis tolC gene by agar dilution method
[10] = test system: Escherichia coli; experiment: Antimicrobial activity against Escherichia cloi RAM4100 transfected with pGCC4 containg IPTG-inducible lacZ promoter by agar dilution method

MIC [1] | MIC [2] | MIC [3] | MIC [4] | MIC [5] | MIC [8] | Structure (SMILES) | MIC [6] | MIC [7] | MIC [9] | MIC [10]
50 µg/mL (≈ 195 µM) | 400 µg/mL (≈ 1560 µM) | 50 µg/mL (≈ 195 µM) | 400 µg/mL (≈ 1560 µM) |  |  | CCCCCCCCCCCCCCCC(=O)O [PALMITIC ACID] |  |  |  | 
 |  |  |  | 1.5 µg/mL | > 40 µg/mL | CN(C)c1ccc(C(=C2C=CC(=[N+](C)C)C=C2)c2ccc(N(C)C)cc2)cc1.[Cl-] [GENTIAN VIOLET] | > 40 µg/mL | 1.5 µg/mL |  | 
 |  |  |  |  |  | CC[C@H]1OC(=O)[C@H](C)[C@@H](O[C@H]2C[C@@](C)(OC)[C@@H](O)[C@H](C)O2)[C@H](C)[C@@H](O[C@@H]2O[C@H](C)C[C@H](N(C)C)[C@H]2O)[C@](C)(O)C[C@@H](C)C(=O)[C@H](C)[C@@H](O)[C@]1(C)O [ERYTHROMYCIN] | 5 µg/mL (≈ 6.81 µM) | 5 µg/mL (≈ 6.81 µM) | 300 µg/mL (≈ 409 µM) | 300 µg/mL (≈ 409 µM)
0.125 µg/mL (≈ 0.167 µM) | 2 µg/mL (≈ 2.67 µM) | 0.125 µg/mL (≈ 0.167 µM) | 2 µg/mL (≈ 2.67 µM) |  |  | CC[C@H]1OC(=O)[C@H](C)[C@@H](O[C@H]2C[C@@](C)(OC)[C@@H](O)[C@H](C)O2)[C@H](C)[C@@H](O[C@@H]2O[C@H](C)C[C@H](N(C)C)[C@H]2O)[C@](C)(O)C[C@@H](C)CN(C)[C@H](C)[C@@H](O)[C@]1(C)O [AZITHROMYCIN] |  |  |  | 
 |  |  |  | 40 µg/mL (≈ 65.3 µM) | 500 µg/mL (≈ 816 µM) | CO[C@@H]1[C@@H](OC(N)=O)[C@@H](O)[C@H](Oc2ccc3c(O)c(NC(=O)c4ccc(O)c(CC=C(C)C)c4)c(=O)oc3c2C)OC1(C)C [NOVOBIOCIN] | 500 µg/mL (≈ 816 µM) | 40 µg/mL (≈ 65.3 µM) |  | 
0.02 µg/mL (≈ 0.0604 µM) | 0.02 µg/mL (≈ 0.0604 µM) | 0.02 µg/mL (≈ 0.0604 µM) | 0.02 µg/mL (≈ 0.0604 µM) |  |  | O=C(O)c1cn(C2CC2)c2cc(N3CCNCC3)c(F)cc2c1=O [CIPROFLOXACIN] |  |  |  | 

Structure (SMILES) | MIC [1] | MIC [2] | MIC [3] | MIC [4] | MIC [5] | MIC [8] | MIC [6] | MIC [7] | MIC [9] | MIC [10]
CC[C@H](C)[C@H](NC(=O)[C@H](CCCCN)NC(=O)[C@H](CCC(=O)O)NC(=O)[C@H](CCCCN)NC(=O)[C@H](CO)NC(=O)[C@H](CCCCN)NC(=O)[C@H](CCCNC(=N)N)NC(=O)[C@H](Cc1ccccc1)NC(=O)[C@H](Cc1ccccc1)NC(=O)[C@H](CC(=O)O)NC(=O)CNC(=O)[C@H](CC(C)C)NC(=O)[C@@H](N)CC(C)C)C(=O)NCC(=O)N[C@@H](CCCCN)C(=O)N[C@@H](CCC(=O)O)C(=O)N[C@@H](Cc1ccccc1)C(=O)N[C@@H](CCCCN)C(=O)N[C@@H](CCCNC(=N)N)C(=O)N[C@H](C(=O)N[C@H](C(=O)N[C@@H](CCC(N)=O)C(=O)N[C@@H](CCCNC(=N)N)C(=O)N[C@H](C(=O)N[C@@H](CCCCN)C(=O)N[C@@H](CC(=O)O)C(=O)N[C@@H](Cc1ccccc1)C(=O)N[C@@H](CC(C)C)C(=O)N[C@@H](CCCNC(=N)N)C(=O)N[C@@H](CC(N)=O)C(=O)N[C@@H](CC(C)C)C(=O)N[C@H](C(=O)N1CCC[C@H]1C(=O)N[C@@H](CCCNC(=N)N)C(=O)N[C@H](C(=O)N[C@@H](CCC(=O)O)C(=O)N[C@@H](CO)C(=O)O)[C@@H](C)O)C(C)C)[C@@H](C)CC)C(C)C)[C@@H](C)CC [CATHELICIDIN] | 1.98 µg/mL (≈ 0.441 µM) | 7.8 µg/mL (≈ 1.74 µM) | 1.98 µg/mL (≈ 0.441 µM) | 7.8 µg/mL (≈ 1.74 µM) |  |  |  |  |  | 
CC[n+]1c(-c2ccccc2)c2cc(N)ccc2c2ccc(N)cc21.[Br-] [HOMIDIUM BROMIDE] | 0.75 µg/mL | 12 µg/mL | 0.75 µg/mL | 12 µg/mL | 5 µg/mL | > 200 µg/mL | > 200 µg/mL | 5 µg/mL |  | 
